Test results from US20110262368A1, “C21 THIOETHERS AS GLUCOCORTICOID RECEPTOR AGONISTS” (Schering Corporation, priority 2007, published 2011).
Where two headings read alike, the source gives them in different places.

Columns and labels:
[1] = cited from earlier work
Male Brown Norway Rats = settings: rat, in vivo, ip, 2 days
Protocol: Thymus weight reduction studies were performed in accordance to the NIH GUIDE TO THE CARE AND USE OF LABORATORY ANIMALS and the Animal Welfare Act in an AAALAC-accredited program. Male Brown Norway Rats (200-250 g, Charles River, Bloomington, Mass., USA) were used in these studies. The effect of test steroid compounds compared to a control group was studied on thymus involution. […] Rats were dosed i.p. with test compound QD for two days. Twenty four hours after the 2nd dose, animals were euthanized with pentobarbital (125 mg/kg, i.p.). The thymus were removed and weighed and the results expressed as a percentage thymus involution. Doses are expressed in mg/kg. “NS” means not statistically significant.

Oc1cccc(Nc2ncc(F)c(Nc3cccc(O)c3)n2)c1 [Example R112]
improvement from baseline measurements of symptoms associated with chronic nasal congestion ([1]; from baseline (prior to drug initiation)): up to 38%
absolute difference over placebo, symptoms associated with chronic nasal congestion ([1]; versus placebo, absolute): 9%
relative improvement over placebo, symptoms associated with chronic nasal congestion ([1]; versus placebo, relative): greater than 20%

CC12CCC(=O)C=C1CCC1C2[C@@H](O)CC2(C)C1CC[C@]2(O)C(=O)CSc1nc2ccccc2s1 (stereo partly drawn) [Inventive Compound A]
% Thymus Involution (Male Brown Norway Rats; 30 mg/kg): −4 ± 7%

CC12C[C@H](O)[C@@]3(F)C(CCC4=CC(=O)CCC43C)C1CC[C@]2(O)C(=O)CSc1nc2ccccc2s1 (stereo partly drawn) [Inventive Compound B]
% Thymus Involution (Male Brown Norway Rats; 30 mg/kg): 10 ± 4%

C[C@@H]1CC2C3CCC4=CC(=O)C=CC4(C)[C@@]3(F)[C@@H](O)CC2(C)[C@@]1(O)C(=O)CSc1nc2ccccc2s1 (stereo partly drawn) [US′120]
% Thymus Involution (Male Brown Norway Rats; 10 mg/kg): 62 ± 3%
